Test results reported in patent US20070015279A1, “Methods of Selecting Pancreatic Endocrine Cells Using Protein Synthesis Inhibitors” (AmCyte Inc., priority 2005, published 2007).

Key:
[1] = test system: cultured adult human pancreatic cells; experiment: G418 sulfate treatment of HD522B P0 cells, marker mRNA by quantitative RT-PCR; type: cell-based
Experimental: (§1) HD522B P0 cells were cultured in M3 for 4 days; G418 sulfate in M3 at the following concentrations (μg/ml) was added to the culture: 0, 5, 25, 50, 100, 200, 500, and 1000. The cells were cultured in the presence of G418 sulfate for 48 h, switched to recovery medium (M3/ITS/LIF) for one week and harvested for quantitative RT-PCR analysis. The control group had to be harvested two days post recovery due to confluence. […] At lower dosages, cell death occurred between 1 and 3 days after switch to recovery medium. Cell proliferation could be observed during the recovery period in most of the conditions except in cultures containing 500 and 1000 μg/ml G418 sulfate. Cell confluence from each plate was estimated as following: 0 (100%), 5 (100%), 25 (95%), 50 (85%), 100 (50%), 200 (20%), 500 (less than 5%), 1000 (less than 2%). Approximately equal amount of cells from each plate were used for analysis based on the estimated confluences of each plate except the plates received 500 and 1000 μg/ml G418 sulfate treatment. The β-actin mRNA copy numbers have no significant variation in control group and cells received 5, 25, 50, and 100 μg/ml G418 whereas cells that received 200 to 1000 μg/ml G418 have much lower β-actin expression especially the 500 and 1000 μg/ml samples. This correlated well with the decreased cell confluence in these samples. The expression of endocrine gene markers increased as the concentration of G418 concentration increased to 100 μg/ml and decreased when G418 concentration is above 200 μg/ml. The expression of amylase, an exocrine marker, and nestin, a marker of mesenchymal cell, decreased as G418 concentration increased.

[2] = test system: HD522B P0 cells; experiment: G418 sulfate treatment of HD522B P0 cells, cell death and confluence; type: cell-based, human; conditions: for Cell confluence (estimated): one week recovery
Experimental: as §1

[3] = test system: 30S ribosomal subunit; conditions: cited from earlier work
[4] = test system: cells; conditions: cited from earlier work

For geneticin sulfate [G418 Sulfate], the Amylase/β-actin ([1]; 5 μg/ml 48 h) was 1.72E−03, the CK19/β-actin ([1]; 5 μg/ml 48 h) was 7.51E−01 and the Delta/β-actin ([1]; 5 μg/ml 48 h) was 1.24E−04. The GCK/β-actin ([1]; 5 μg/ml 48 h) was 2.20E−04, the GLUT2/β-actin ([1]; 5 μg/ml 48 h) was 4.36E−05 and the Gcg/β-actin ([1]; 5 μg/ml 48 h) was 1.97E−02. For the same substance, the Insulin/β-actin ([1]; 5 μg/ml 48 h) was 1.67E+00, the NCAM/β-actin ([1]; 5 μg/ml 48 h) was 1.51E−01 and the Nestin/β-actin ([1]; 5 μg/ml 48 h) was 2.52E−03. For the same substance, the NeuroD/β-actin ([1]; 5 μg/ml 48 h) was 1.26E−03, the Ngn3/β-actin ([1]; 5 μg/ml 48 h) was 2.45E−07 and the Nkx2.2/β-actin ([1]; 5 μg/ml 48 h) was 7.84E−05. It also gave a Nkx6.1/β-actin ([1]; 5 μg/ml 48 h) of 4.52E−04, a Notch1/β-actin ([1]; 5 μg/ml 48 h) of 8.14E−05 and a P48/β-actin ([1]; 5 μg/ml 48 h) of 8.62E−03. The PDX/β-actin ([1]; 5 μg/ml 48 h) was 7.02E−04, the Pax4/β-actin ([1]; 5 μg/ml 48 h) was 9.82E−06 and the SST/β-actin ([1]; 5 μg/ml 48 h) was 5.88E−02. For the same substance, the Amylase/β-actin ([1]; 25 μg/ml 48 h) was 6.09E−04, the CK19/β-actin ([1]; 25 μg/ml 48 h) was 1.06E+00 and the Delta/β-actin ([1]; 25 μg/ml 48 h) was 1.08E−04. It also gave a GCK/β-actin ([1]; 25 μg/ml 48 h) of 2.51E−04, a GLUT2/β-actin ([1]; 25 μg/ml 48 h) of 1.10E−04 and a Gcg/β-actin ([1]; 25 μg/ml 48 h) of 4.56E−02. It also gave an Insulin/β-actin ([1]; 25 μg/ml 48 h) of 3.40E+00, an NCAM/β-actin ([1]; 25 μg/ml 48 h) of 2.23E−01 and a Nestin/β-actin ([1]; 25 μg/ml 48 h) of 1.24E−03. It also gave a NeuroD/β-actin ([1]; 25 μg/ml 48 h) of 1.79E−03, a Ngn3/β-actin ([1]; 25 μg/ml 48 h) of 9.19E−07 and a Nkx2.2/β-actin ([1]; 25 μg/ml 48 h) of 2.35E−04. For the same substance, the Nkx6.1/β-actin ([1]; 25 μg/ml 48 h) was 6.45E−04, the Notch1/β-actin ([1]; 25 μg/ml 48 h) was 3.02E−04 and the P48/β-actin ([1]; 25 μg/ml 48 h) was 1.12E−02. For the same substance, the PDX/β-actin ([1]; 25 μg/ml 48 h) was 1.11E−03, the Pax4/β-actin ([1]; 25 μg/ml 48 h) was 1.24E−05 and the SST/β-actin ([1]; 25 μg/ml 48 h) was 1.03E−01. For the same substance, the Amylase/β-actin ([1]; 50 μg/ml 48 h) was 4.50E−04, the CK19/β-actin ([1]; 50 μg/ml 48 h) was 1.02E+00 and the Delta/β-actin ([1]; 50 μg/ml 48 h) was 7.70E−05. The GCK/β-actin ([1]; 50 μg/ml 48 h) was 3.01E−04, the GLUT2/β-actin ([1]; 50 μg/ml 48 h) was 2.17E−04 and the Gcg/β-actin ([1]; 50 μg/ml 48 h) was 9.04E−02. For the same substance, the Insulin/β-actin ([1]; 50 μg/ml 48 h) was 5.51E+00, the NCAM/β-actin ([1]; 50 μg/ml 48 h) was 1.51E−01 and the Nestin/β-actin ([1]; 50 μg/ml 48 h) was 5.42E−04. For the same substance, the NeuroD/β-actin ([1]; 50 μg/ml 48 h) was 3.10E−03, the Ngn3/β-actin ([1]; 50 μg/ml 48 h) was 2.13E−06 and the Nkx2.2/β-actin ([1]; 50 μg/ml 48 h) was 4.03E−04. The Nkx6.1/β-actin ([1]; 50 μg/ml 48 h) was 6.82E−04, the Notch1/β-actin ([1]; 50 μg/ml 48 h) was 4.91E−04 and the P48/β-actin ([1]; 50 μg/ml 48 h) was 9.21E−03. It also gave a PDX/β-actin ([1]; 50 μg/ml 48 h) of 1.28E−03, a Pax4/β-actin ([1]; 50 μg/ml 48 h) of 2.63E−05 and an SST/β-actin ([1]; 50 μg/ml 48 h) of 1.84E−01. It also gave an Amylase/β-actin ([1]; 100 μg/ml 48 h) of 5.09E−04, a CK19/β-actin ([1]; 100 μg/ml 48 h) of 9.98E−01 and a Delta/β-actin ([1]; 100 μg/ml 48 h) of 1.16E−04. The GCK/β-actin ([1]; 100 μg/ml 48 h) was 8.81E−04, the GLUT2/β-actin ([1]; 100 μg/ml 48 h) was 4.53E−04 and the Gcg/β-actin ([1]; 100 μg/ml 48 h) was 1.85E−01. For the same substance, the Insulin/β-actin ([1]; 100 μg/ml 48 h) was 1.06E+01, the NCAM/β-actin ([1]; 100 μg/ml 48 h) was 9.73E−02 and the Nestin/β-actin ([1]; 100 μg/ml 48 h) was 3.48E−04. The NeuroD/β-actin ([1]; 100 μg/ml 48 h) was 6.94E−03, the Ngn3/β-actin ([1]; 100 μg/ml 48 h) was 2.71E−06 and the Nkx2.2/β-actin ([1]; 100 μg/ml 48 h) was 8.70E−04. The Nkx6.1/β-actin ([1]; 100 μg/ml 48 h) was 9.19E−04, the Notch1/β-actin ([1]; 100 μg/ml 48 h) was 5.39E−04 and the P48/β-actin ([1]; 100 μg/ml 48 h) was 7.93E−03. It also gave a PDX/β-actin ([1]; 100 μg/ml 48 h) of 1.72E−03, a Pax4/β-actin ([1]; 100 μg/ml 48 h) of 5.31E−05 and an SST/β-actin ([1]; 100 μg/ml 48 h) of 4.63E−01. The Amylase/β-actin ([1]; 200 μg/ml 48 h) was 1.29E−03, the CK19/β-actin ([1]; 200 μg/ml 48 h) was 4.09E−01 and the Delta/β-actin ([1]; 200 μg/ml 48 h) was 2.67E−04. For the same substance, the GCK/β-actin ([1]; 200 μg/ml 48 h) was 2.74E−03, the GLUT2/β-actin ([1]; 200 μg/ml 48 h) was 1.33E−03 and the Gcg/β-actin ([1]; 200 μg/ml 48 h) was 5.44E−01. It also gave an Insulin/β-actin ([1]; 200 μg/ml 48 h) of 1.56E+01, an NCAM/β-actin ([1]; 200 μg/ml 48 h) of 6.17E−02 and a Nestin/β-actin ([1]; 200 μg/ml 48 h) of 1.81E−03. It also gave a NeuroD/β-actin ([1]; 200 μg/ml 48 h) of 1.76E−02, a Ngn3/β-actin ([1]; 200 μg/ml 48 h) of 2.37E−06 and a Nkx2.2/β-actin ([1]; 200 μg/ml 48 h) of 3.31E−03. The Nkx6.1/β-actin ([1]; 200 μg/ml 48 h) was 1.99E−03, the Notch1/β-actin ([1]; 200 μg/ml 48 h) was 1.60E−03 and the P48/β-actin ([1]; 200 μg/ml 48 h) was 1.04E−02. For the same substance, the PDX/β-actin ([1]; 200 μg/ml 48 h) was 6.90E−03, the Pax4/β-actin ([1]; 200 μg/ml 48 h) was 2.32E−04 and the SST/β-actin ([1]; 200 μg/ml 48 h) was 1.37E+00. For the same substance, the Amylase/β-actin ([1]; 500 μg/ml 48 h) was 7.63E−03, the CK19/β-actin ([1]; 500 μg/ml 48 h) was 1.03E−01 and the Delta/β-actin ([1]; 500 μg/ml 48 h) was 1.27E−03. It also gave a GCK/β-actin ([1]; 500 μg/ml 48 h) of 1.85E−02, a GLUT2/β-actin ([1]; 500 μg/ml 48 h) of 1.09E−02 and a Gcg/β-actin ([1]; 500 μg/ml 48 h) of 3.80E+00. It also gave an Insulin/β-actin ([1]; 500 μg/ml 48 h) of 8.21E+01, an NCAM/β-actin ([1]; 500 μg/ml 48 h) of 5.51E−02 and a Nestin/β-actin ([1]; 500 μg/ml 48 h) of 3.37E−03. The NeuroD/β-actin ([1]; 500 μg/ml 48 h) was 1.42E−01, the Ngn3/β-actin ([1]; 500 μg/ml 48 h) was 0.00E+00 and the Nkx2.2/β-actin ([1]; 500 μg/ml 48 h) was 2.84E−02. It also gave a Nkx6.1/β-actin ([1]; 500 μg/ml 48 h) of 1.28E−02, a Notch1/β-actin ([1]; 500 μg/ml 48 h) of 1.93E−03 and a P48/β-actin ([1]; 500 μg/ml 48 h) of 2.43E−02. It also gave a PDX/β-actin ([1]; 500 μg/ml 48 h) of 5.35E−02, a Pax4/β-actin ([1]; 500 μg/ml 48 h) of 1.50E−03 and an SST/β-actin ([1]; 500 μg/ml 48 h) of 8.06E+00. The Amylase/β-actin ([1]; 1000 μg/ml 48 h) was 1.24E−02, the CK19/β-actin ([1]; 1000 μg/ml 48 h) was 1.44E−02 and the Delta/β-actin ([1]; 1000 μg/ml 48 h) was 4.18E−03. For the same substance, the GCK/β-actin ([1]; 1000 μg/ml 48 h) was 2.39E−02, the GLUT2/β-actin ([1]; 1000 μg/ml 48 h) was 1.29E−02 and the Gcg/β-actin ([1]; 1000 μg/ml 48 h) was 4.98E+00. The Insulin/β-actin ([1]; 1000 μg/ml 48 h) was 2.02E+02, the NCAM/β-actin ([1]; 1000 μg/ml 48 h) was 3.31E−02 and the Nestin/β-actin ([1]; 1000 μg/ml 48 h) was 0.00E+00. The NeuroD/β-actin ([1]; 1000 μg/ml 48 h) was 1.72E−01, the Ngn3/β-actin ([1]; 1000 μg/ml 48 h) was 0.00E+00 and the Nkx2.2/β-actin ([1]; 1000 μg/ml 48 h) was 6.69E−02. For the same substance, the Nkx6.1/β-actin ([1]; 1000 μg/ml 48 h) was 1.37E−02, the Notch1/β-actin ([1]; 1000 μg/ml 48 h) was 3.99E−03 and the P48/β-actin ([1]; 1000 μg/ml 48 h) was 5.95E−02. It also gave a PDX/β-actin ([1]; 1000 μg/ml 48 h) of 4.87E−02, a Pax4/β-actin ([1]; 1000 μg/ml 48 h) of 7.64E−04 and an SST/β-actin ([1]; 1000 μg/ml 48 h) of 2.43E+01. For the same substance, the “Cell confluence (estimated)” value ([2]; 5 μg/ml 48 h) was 100%, the “Cell confluence (estimated)” value ([2]; 25 μg/ml 48 h) was 95% and the “Cell confluence (estimated)” value ([2]; 50 μg/ml 48 h) was 85%. For the same substance, the “Cell confluence (estimated)” value ([2]; 100 μg/ml 48 h) was 50%, the “Cell confluence (estimated)” value ([2]; 200 μg/ml 48 h) was 20% and the “Cell confluence (estimated)” value ([2]; 500 μg/ml 48 h) was “less than 5%”. The “Cell confluence (estimated)” value ([2]; 1000 μg/ml 48 h) was “less than 2%” and the “time to observed cell death” value ([2]; 500 and 1000 μg/ml groups, from start of treatment) was no more than 24 h.

In the case of neomycin, the “reduction of the rate of 30S formation compared with control cells” value ([3]; 3 μg/mL) is listed as “about 80%”, the “IC50 for 30S particle formation” value [3] is listed as “equal to the IC50 for inhibition of translation” and the “IC50, viable cell number” value [4] is listed as 2 µg/mL.
